Data: PMC6458995, “MAP4K4 Inhibition Promotes Survival of Human Stem Cell-Derived Cardiomyocytes and Reduces Infarct Size In Vivo” (Cell Stem Cell, 2019)
Read-outs that look alike come from different tables or passages of the source.

Columns and labels:
recombinant human MAP4K4 = molecular target: T1, recombinant human MAP4K4 (Homo sapiens, UniProt O95819); test: In vitro MAP4K4 kinase activity assay (HTRF Transcreener ADP); format: biochemical
T1 construct: Human MAP4K4 kinase domain (aa 1-328); purchased Invitrogen PV3687
T1 sequence (O95819 1-328): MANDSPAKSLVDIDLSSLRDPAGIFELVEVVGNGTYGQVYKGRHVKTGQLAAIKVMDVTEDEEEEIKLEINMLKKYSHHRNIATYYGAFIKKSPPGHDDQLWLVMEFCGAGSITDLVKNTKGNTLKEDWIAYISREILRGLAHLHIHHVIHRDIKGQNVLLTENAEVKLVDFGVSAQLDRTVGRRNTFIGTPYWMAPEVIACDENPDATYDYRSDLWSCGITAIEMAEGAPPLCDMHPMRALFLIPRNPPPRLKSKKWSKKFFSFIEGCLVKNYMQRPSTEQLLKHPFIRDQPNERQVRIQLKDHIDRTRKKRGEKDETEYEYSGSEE
Experimental: MAP4K4 kinase activity was monitored using the CisBio HTRF Transcreener ADP assay, a competitive immunoassay with a reproducible Z’ > 0.6. In the detection step, endogenous ADP and d2-labeled ADP compete for binding an anti-ADP monoclonal antibody labeled with Eu^3+ cryptate. […] Assays were run in Greiner low volume plates with a final reaction volume of 10 μl. Percent inhibition was calculated from 100% activity of MAP4K4 (DMSO only) and 0% activity (no enzyme added). Data were either reported as % inhibition at a single dose or as pIC50 values derived from dose response curves (pIC50 = -log[IC50]).

MKK2 = molecular target: T2, MKK2 (Homo sapiens, UniProt P36507); test: Dundee kinase panel; format: biochemical; conditions: for remaining activity at 1 µM: read-out: residual activity
T2 construct: lines 1-140) and Reaction Biology
T2 sequence (P36507 whole entry): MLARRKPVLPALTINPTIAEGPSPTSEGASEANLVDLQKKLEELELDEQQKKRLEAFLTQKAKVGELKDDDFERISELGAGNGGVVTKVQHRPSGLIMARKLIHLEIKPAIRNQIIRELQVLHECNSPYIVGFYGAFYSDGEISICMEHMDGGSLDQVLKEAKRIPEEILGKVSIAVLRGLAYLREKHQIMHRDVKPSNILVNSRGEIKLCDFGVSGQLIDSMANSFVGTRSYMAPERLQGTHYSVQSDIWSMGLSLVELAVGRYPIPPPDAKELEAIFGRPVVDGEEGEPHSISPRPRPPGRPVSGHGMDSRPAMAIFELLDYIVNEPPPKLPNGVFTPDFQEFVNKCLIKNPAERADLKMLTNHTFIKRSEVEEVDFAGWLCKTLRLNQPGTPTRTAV
Experimental: (§1) Compounds were screened at 1 μM. For key hits, pIC50 values were then determined by HTRF as above. […] Stability in mouse and human liver microsomes was determined by Cyprotex.

DAPK1 = molecular target: T3, DAPK1 (Homo sapiens, UniProt P53355); test: Dundee kinase panel; format: biochemical; conditions: for remaining activity at 1 µM: read-out: residual activity
T3 construct: lines 1-140) and Reaction Biology
T3 sequence (P53355 whole entry): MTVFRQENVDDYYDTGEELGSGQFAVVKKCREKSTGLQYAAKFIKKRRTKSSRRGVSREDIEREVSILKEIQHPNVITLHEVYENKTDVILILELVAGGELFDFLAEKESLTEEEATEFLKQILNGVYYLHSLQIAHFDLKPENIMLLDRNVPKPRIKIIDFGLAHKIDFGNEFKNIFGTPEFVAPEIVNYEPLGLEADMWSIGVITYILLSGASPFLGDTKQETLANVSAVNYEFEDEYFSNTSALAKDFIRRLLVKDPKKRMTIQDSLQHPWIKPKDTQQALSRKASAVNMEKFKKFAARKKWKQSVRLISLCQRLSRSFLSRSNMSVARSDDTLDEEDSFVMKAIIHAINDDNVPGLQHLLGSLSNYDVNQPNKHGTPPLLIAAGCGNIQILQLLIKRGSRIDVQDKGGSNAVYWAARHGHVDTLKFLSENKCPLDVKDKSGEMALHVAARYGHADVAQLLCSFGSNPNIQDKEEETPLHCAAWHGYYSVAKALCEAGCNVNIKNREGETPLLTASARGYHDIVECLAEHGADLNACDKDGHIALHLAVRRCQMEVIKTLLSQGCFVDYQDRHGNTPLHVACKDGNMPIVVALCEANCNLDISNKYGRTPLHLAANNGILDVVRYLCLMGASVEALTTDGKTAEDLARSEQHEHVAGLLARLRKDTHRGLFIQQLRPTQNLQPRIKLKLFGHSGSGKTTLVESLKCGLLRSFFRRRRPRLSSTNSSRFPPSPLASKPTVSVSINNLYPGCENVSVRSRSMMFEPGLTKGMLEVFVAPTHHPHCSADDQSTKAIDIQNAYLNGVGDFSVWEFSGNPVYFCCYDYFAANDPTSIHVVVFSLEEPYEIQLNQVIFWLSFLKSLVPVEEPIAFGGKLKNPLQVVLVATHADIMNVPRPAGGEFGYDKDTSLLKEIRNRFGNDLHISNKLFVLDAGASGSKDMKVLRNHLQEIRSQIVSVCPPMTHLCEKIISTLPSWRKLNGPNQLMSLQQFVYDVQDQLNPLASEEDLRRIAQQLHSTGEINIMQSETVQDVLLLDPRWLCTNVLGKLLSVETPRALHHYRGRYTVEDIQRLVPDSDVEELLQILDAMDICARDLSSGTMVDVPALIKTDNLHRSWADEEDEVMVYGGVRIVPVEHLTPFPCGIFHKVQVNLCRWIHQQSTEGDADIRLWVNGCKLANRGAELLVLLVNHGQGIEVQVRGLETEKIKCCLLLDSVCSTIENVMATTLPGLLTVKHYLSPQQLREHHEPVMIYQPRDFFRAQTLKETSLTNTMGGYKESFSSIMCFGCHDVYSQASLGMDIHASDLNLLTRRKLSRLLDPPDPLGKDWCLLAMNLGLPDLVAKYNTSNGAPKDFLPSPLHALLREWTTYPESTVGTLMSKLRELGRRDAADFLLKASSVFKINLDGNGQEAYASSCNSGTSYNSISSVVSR
Experimental: as §1

PINK = test: Dundee kinase panel; format: biochemical, human; conditions: 1 μM
Experimental: (§2) Kinase selectivity profiling was performed by the International Centre for Kinase Profiling, MRC Protein Phosphorylation and Ubiquitylation Unit (141 kinases; Premier Screen, http://www.kinase-screen.mrc.ac.uk), using a [γ-^33P]ATP filter binding assay ([Bain et al., 2007]). Compounds were screened at 1 μM. For key hits, pIC50 values were then determined by HTRF as above. More complete kinome profiling was performed by Reaction Biology (376 kinases). Stability in mouse and human liver microsomes was determined by Cyprotex.

ERK5 = molecular target: T4, ERK5 (Homo sapiens, UniProt Q13164); test: Dundee kinase panel; format: biochemical; conditions: for remaining activity at 1 µM: read-out: residual activity
T4 construct: lines 1-140) and Reaction Biology
Experimental: as §2

ULK2 = molecular target: T5, ULK2 (Homo sapiens, UniProt Q8IYT8); test: Dundee kinase panel; format: biochemical; conditions: for remaining activity at 1 µM: read-out: residual activity
T5 construct: lines 1-140) and Reaction Biology
T5 sequence (Q8IYT8 1-1036): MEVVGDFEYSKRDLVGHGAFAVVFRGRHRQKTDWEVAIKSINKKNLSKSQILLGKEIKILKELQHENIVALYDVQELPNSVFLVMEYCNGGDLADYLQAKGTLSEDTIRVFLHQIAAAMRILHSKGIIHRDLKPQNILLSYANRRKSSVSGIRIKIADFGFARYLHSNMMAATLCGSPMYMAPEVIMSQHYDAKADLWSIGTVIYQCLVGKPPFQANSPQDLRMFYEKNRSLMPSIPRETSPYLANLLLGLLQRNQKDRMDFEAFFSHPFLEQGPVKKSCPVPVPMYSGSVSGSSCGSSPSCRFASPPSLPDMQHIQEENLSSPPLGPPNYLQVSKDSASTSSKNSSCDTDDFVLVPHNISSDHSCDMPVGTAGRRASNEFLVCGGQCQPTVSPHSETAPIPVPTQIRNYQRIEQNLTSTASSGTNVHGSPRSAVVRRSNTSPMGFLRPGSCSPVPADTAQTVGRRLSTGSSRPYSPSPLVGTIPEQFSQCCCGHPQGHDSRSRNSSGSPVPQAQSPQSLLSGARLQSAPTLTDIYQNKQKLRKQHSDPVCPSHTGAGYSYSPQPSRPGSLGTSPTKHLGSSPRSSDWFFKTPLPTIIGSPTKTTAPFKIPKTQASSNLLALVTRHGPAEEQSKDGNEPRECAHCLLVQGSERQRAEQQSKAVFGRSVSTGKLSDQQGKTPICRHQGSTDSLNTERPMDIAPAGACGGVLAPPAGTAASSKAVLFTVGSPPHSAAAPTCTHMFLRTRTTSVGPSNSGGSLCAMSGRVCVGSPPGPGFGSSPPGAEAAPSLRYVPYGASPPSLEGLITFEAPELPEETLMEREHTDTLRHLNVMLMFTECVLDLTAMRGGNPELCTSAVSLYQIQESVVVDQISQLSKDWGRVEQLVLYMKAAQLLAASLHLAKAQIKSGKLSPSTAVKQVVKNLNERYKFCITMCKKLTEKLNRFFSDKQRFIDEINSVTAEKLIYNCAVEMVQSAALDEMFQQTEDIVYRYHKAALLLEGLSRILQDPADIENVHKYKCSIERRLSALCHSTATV
Experimental: as §2

TGFBR1 = molecular target: T6, TGFBR1 (Homo sapiens, UniProt P36897); test: Dundee kinase panel; format: biochemical; conditions: for remaining activity at 1 µM: read-out: residual activity
T6 construct: lines 1-140) and Reaction Biology
T6 sequence (P36897 34-503): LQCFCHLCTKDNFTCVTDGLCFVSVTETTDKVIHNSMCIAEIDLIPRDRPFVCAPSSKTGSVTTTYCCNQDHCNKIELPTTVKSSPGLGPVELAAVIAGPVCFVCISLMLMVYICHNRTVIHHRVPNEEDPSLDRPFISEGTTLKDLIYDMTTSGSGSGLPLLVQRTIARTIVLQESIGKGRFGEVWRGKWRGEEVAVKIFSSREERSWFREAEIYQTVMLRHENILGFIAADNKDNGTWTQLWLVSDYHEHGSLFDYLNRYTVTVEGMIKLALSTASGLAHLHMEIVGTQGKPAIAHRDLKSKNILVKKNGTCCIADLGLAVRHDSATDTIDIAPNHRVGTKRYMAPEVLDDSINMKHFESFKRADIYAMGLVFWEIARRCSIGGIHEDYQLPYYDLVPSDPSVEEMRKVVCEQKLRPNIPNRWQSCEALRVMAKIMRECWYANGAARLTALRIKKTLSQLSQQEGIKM
Experimental: as §2

Src = molecular target: T7, Src (Homo sapiens, UniProt P12931); test: Dundee kinase panel; format: biochemical; conditions: for remaining activity at 1 µM: read-out: residual activity
T7 construct: lines 1-140) and Reaction Biology
T7 sequence (P12931 whole entry): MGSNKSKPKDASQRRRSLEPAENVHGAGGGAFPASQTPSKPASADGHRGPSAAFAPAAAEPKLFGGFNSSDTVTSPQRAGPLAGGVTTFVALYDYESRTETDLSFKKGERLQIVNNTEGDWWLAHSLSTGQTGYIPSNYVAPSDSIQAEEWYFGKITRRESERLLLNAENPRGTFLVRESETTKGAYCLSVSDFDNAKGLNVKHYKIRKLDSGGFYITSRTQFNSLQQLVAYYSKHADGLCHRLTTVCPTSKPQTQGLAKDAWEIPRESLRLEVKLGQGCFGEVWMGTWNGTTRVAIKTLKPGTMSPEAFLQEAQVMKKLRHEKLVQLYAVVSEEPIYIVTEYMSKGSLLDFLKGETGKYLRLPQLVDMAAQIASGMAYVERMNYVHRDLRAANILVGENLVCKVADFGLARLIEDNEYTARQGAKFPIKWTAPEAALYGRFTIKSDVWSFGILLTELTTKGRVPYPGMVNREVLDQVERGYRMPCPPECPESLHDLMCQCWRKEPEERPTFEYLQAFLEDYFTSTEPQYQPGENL
Experimental: as §2

MINK1 = molecular target: T8, MINK1 (Homo sapiens, UniProt Q8N4C8); test: Dundee kinase panel; format: biochemical; conditions: for remaining activity at 1 µM: read-out: residual activity
T8 construct: lines 1-140) and Reaction Biology
T8 sequence (Q8N4C8 whole entry): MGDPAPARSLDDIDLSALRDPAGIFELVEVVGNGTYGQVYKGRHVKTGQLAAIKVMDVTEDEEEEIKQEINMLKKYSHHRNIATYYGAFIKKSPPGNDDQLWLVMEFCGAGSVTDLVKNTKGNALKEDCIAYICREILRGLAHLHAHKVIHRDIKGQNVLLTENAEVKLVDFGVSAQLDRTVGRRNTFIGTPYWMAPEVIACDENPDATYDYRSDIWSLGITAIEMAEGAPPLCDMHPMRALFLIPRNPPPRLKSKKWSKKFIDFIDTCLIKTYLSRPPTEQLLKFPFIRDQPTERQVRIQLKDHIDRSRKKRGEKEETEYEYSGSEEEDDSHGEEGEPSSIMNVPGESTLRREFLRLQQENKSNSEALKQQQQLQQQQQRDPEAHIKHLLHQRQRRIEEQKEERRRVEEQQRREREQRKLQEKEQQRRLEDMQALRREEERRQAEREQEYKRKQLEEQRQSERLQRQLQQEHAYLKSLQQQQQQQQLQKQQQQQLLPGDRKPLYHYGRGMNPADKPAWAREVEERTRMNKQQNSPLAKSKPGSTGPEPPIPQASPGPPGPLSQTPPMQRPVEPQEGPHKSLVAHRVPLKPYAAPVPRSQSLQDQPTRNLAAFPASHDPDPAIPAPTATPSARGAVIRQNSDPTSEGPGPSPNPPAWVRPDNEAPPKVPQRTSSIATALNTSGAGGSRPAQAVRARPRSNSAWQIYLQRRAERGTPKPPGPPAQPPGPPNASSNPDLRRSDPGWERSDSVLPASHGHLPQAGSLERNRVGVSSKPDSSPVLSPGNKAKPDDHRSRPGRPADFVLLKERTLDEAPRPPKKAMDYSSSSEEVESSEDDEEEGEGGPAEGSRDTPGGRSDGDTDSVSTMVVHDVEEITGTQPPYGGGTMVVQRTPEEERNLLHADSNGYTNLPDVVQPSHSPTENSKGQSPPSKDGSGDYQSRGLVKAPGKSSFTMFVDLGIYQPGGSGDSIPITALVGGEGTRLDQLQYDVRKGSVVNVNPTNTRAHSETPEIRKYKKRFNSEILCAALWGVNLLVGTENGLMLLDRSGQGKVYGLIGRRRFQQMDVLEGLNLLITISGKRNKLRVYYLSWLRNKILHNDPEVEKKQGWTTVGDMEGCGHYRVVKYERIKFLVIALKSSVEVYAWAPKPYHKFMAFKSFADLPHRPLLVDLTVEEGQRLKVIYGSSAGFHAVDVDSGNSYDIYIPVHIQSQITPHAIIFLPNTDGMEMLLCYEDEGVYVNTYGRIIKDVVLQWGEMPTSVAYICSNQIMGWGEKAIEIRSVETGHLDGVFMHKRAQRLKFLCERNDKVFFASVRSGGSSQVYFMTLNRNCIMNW
Experimental: as §2

MARK1 = molecular target: T9, MARK1 (Homo sapiens, UniProt Q9P0L2); test: Dundee kinase panel; format: biochemical; conditions: for remaining activity at 1 µM: read-out: residual activity
T9 construct: lines 1-140) and Reaction Biology
T9 sequence (Q9P0L2 whole entry): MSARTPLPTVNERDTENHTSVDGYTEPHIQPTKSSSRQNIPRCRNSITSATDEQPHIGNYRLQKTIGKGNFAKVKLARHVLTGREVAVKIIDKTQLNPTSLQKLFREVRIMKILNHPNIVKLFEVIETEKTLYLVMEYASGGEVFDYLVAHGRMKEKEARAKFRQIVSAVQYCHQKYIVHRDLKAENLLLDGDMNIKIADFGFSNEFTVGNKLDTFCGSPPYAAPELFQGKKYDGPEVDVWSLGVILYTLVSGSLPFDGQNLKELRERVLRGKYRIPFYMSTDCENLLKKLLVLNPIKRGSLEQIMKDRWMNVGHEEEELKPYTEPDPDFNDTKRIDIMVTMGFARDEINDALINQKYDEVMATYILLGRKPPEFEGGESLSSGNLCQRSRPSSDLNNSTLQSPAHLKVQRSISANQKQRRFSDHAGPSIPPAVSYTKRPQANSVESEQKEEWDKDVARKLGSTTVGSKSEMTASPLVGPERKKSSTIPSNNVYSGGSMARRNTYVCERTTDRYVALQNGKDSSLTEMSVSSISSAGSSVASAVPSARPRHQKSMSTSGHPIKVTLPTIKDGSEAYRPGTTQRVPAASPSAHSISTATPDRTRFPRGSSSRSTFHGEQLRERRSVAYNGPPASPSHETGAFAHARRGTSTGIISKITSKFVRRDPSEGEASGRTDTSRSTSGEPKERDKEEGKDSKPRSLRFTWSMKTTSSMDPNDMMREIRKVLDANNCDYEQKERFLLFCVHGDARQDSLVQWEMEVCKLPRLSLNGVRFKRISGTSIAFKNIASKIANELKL
Experimental: as §2

MAP4K5 = molecular target: T10, MAP4K5 (Homo sapiens, UniProt Q9Y4K4); test: Dundee kinase panel; format: biochemical; conditions: for remaining activity at 1 µM: read-out: residual activity
T10 construct: lines 1-140) and Reaction Biology
Experimental: as §2

DYRK1A = molecular target: T11, DYRK1A (Homo sapiens, UniProt Q13627); test: Dundee kinase panel; format: biochemical; conditions: for remaining activity at 1 µM: read-out: residual activity
T11 construct: lines 1-140) and Reaction Biology
Experimental: as §2

PHK = test: Dundee kinase panel; format: biochemical, human; conditions: 1 μM
Experimental: as §1

AMPK = test: Dundee kinase panel; format: biochemical, human; conditions: 1 μM
Experimental: as §1

[1] = MAP4K4, HTRF Transcreener ADP assay, read-out: pIC50 (converted)
[2] = dose-response, Figure 2C, read-out: IC50 against recombinant human MAP4K4

Row | Compound | IC50 (recombinant human MAP4K4; [1]) [nM] | remaining activity at 1 µM (MKK2) [%] | remaining activity at 1 µM (DAPK1) [%] | residual activity (PINK) [%] | remaining activity at 1 µM (ERK5) [%] | remaining activity at 1 µM (ULK2) [%] | remaining activity at 1 µM (TGFBR1) [%] | remaining activity at 1 µM (Src) [%] | remaining activity at 1 µM (MINK1) [%] | remaining activity at 1 µM (MARK1) [%] | remaining activity at 1 µM (MAP4K5) [%] | remaining activity at 1 µM (DYRK1A) [%] | residual activity (PHK) [%] | residual activity (AMPK) [%] | IC50 (recombinant human MAP4K4; [2]) [nM] | also measured
1 | COCCOc1ccc(-c2cn(-c3ccccc3)c3nc[nH]c(=O)c23)cc1 [DMX-5804, 5-[4-(2-methoxy-ethoxy)-phenyl]-7-phenyl-3,7-dihydro-pyrrolo[2,3-d]pyrimidin-4-one] | 2.82 | 98 | 133 | 108 | 115 | 89 | 95 | 92 | 2 | 81 | 44 | 110 | 102 | 87 |  | fold greater potency compared with F1386-0303 (recombinant human MAP4K4): 10 fold
2 | Oc1ncnc2c1c(-c1ccccc1)cn2-c1ccccc1 [F1386-0303, 5,7-diphenyl-7H-pyrrolo[2,3-d]pyrimidin-4-ol] | 34.7 | 102 | 104 | 104 | 93 | 86 | 141 | 118 | 11 | 87 | 82 | 108 | 106 | 114 | 34 | 
3 | Nc1ncc(C(=O)NC2CN(C(=O)C3CC3)C2)c2ccc(-c3cccc(F)c3)nc12 [GNE-495] |  |  |  | 104 |  |  |  |  |  |  |  |  | 96 | 81 |  | residual activity (MKK2; 1 μM): 75%; residual activity (DAPK1; 1 μM): 126%; residual activity (ERK5; 1 μM): 96%; residual activity (ULK2; 1 μM): 100%; residual activity (TGFBR1; 1 μM): 94%; residual activity (Src; 1 μM): 122%; residual activity (MINK1; 1 μM): 2%; residual activity (MARK1; 1 μM): 57%; residual activity (MAP4K5; 1 μM): 45%; residual activity (DYRK1A; 1 μM): 55%
4 | O=C1Nc2ccc(I)cc2/C1=C/c1cc(Br)c(O)c(Br)c1 [GW5074] |  | 79 | 29 |  |  |  |  |  |  |  |  |  | 26 | 42 | 30 | 
5 | O=C1Cc2c([nH]c3ccc(Br)cc23)-c2ccccc2N1 [Kenpaullone] |  | 91 | 82 |  |  |  |  |  |  |  |  |  | 20 | 64 | 30 | 
